In publication PMC7559897, “Designed Antimicrobial Peptides Against Trauma-Related Cutaneous Invasive Fungal Wound Infections” (Journal of Fungi, 2020):
Converted amounts (≈) assume the structure as drawn. Bridge positions count the residues as written; N and C are the ends. Peptide text beside a SMILES is read from it.

Legend:
[1] = tested on: Absidia corymbifera NRRL 6251; type: cell-based; conditions: potato dextrose broth, 24 h, 37 °C, OD600 <0.1 in at least 3 of 4 wells, dose range 2 to 128 µg/mL; shaded values previously reported ref 17
Method: (§1) Assays were performed by Trideum Biosciences (Frederick, MD, USA). Isolates were thawed from −80 °C storage and sub-cultured on trypticase soy agar plates at 37 °C prior to experimentation. A single colony was aseptically picked from the agar plate and released in 30 mL trypticase soy broth and incubated overnight at 37 °C incubator. Following which the bacterial culture was diluted to approximately 10^6 colony forming units (CFU)/mL using 2X cation adjusted Mueller–Hinton broth and added to the dAMP solutions (0, 2, 4, 8, 16, 32, 64, and 128 μg/mL) which had been formulated in water at 256 μg/mL and then serially diluted in media on 96-well pates. For fungal evaluation, potato dextrose broth and potato dextrose agar plates were used. The treated cultures were then incubated for 24 h at 37 °C and pathogen growth was measured by absorbance at 600 nm. Four replicas were included for each dAMP concentration. Each MIC was assigned to the lowest test agent concentration resulting in at least three out of four wells showing no growth based on an optical density (OD) reading of <0.1.

[2] = tested on: Candida parapsilosis Y-1763; type: cell-based; conditions: potato dextrose broth, 24 h, 37 °C, OD600 <0.1 in at least 3 of 4 wells, dose range 2 to 128 µg/mL; shaded values previously reported ref 17
Method: as §1

Candida krusei Y-27803 = type: cell-based; conditions: potato dextrose broth, 24 h, 37 °C, OD600 <0.1 in at least 3 of 4 wells, dose range 2 to 128 µg/mL; shaded values previously reported ref 17
Method: as §1

K. pneumonia 6069 = type: cell-based, Klebsiella pneumoniae; conditions: cation adjusted Mueller-Hinton broth, ~10^6 CFU/mL, 24 h, 37 °C, OD600 <0.1 in at least 3 of 4 wells, 2-128 μg/mL; shaded values previously reported ref 18
Method: as §1

K. pneumonia ATCC 10031 = type: cell-based, Klebsiella pneumoniae; conditions: cation adjusted Mueller-Hinton broth, ~10^6 CFU/mL, 24 h, 37 °C, OD600 <0.1 in at least 3 of 4 wells, 2-128 μg/mL; shaded values previously reported ref 18
Method: as §1

L929 fibroblast cells = assay: Bioluminescent mammalian cytotoxicity assay; type: cell-based, murine; conditions: L929 fibroblasts, up to 64 μg/mL, 8 h of exposure, bioluminescence
Method: Real-time killing of bacterial cells, P. aeruginosa or S. aureus, and mammalian cytotoxicity to assess dAMP off-target toxicity was evaluated using bioluminescent cells. The L929 fibroblast cells (ATCC, Manassas, VA, USA) were made bioluminescent by transfection with a luciferase gene. Cells (1 × 10^4 cells, 100 μL) were plated in 96-well black-walled plates and the candidate dAMPs were 2-fold serially diluted from specified concentrations in growth medium supplemented with 150 μg/mL D-luciferin. Each concentration was performed in triplicate, with the final volume being 200 μL. Imaging was performed at select times after the addition of the dAMP, and compared to concurrently run vehicle-control, using an IVIS Lumina imaging system (Caliper Life Sciences, Inc., Hopkinton, MA, USA). For imaging, the 96-well plate was positioned on the stage (12.5-cm field of view), with an open emission filter, binning of 4, and f-stop 1 and a 1-min exposure time. Monitoring bioluminescence allows assessment of the kinetics of cellular viability as there is a tight correlation between the bioluminescent signal and cell viability. […]
Figure 2 RP504, RP556 and RP557 induce limited mammalian cell toxicity. […] Cells were plated at 1×10^4 cells/well, allowed to adhere overnight and the specific dAMP added, and cytotoxicity evaluated through 8 h. […]

S. aureus 6061 = type: cell-based, Staphylococcus aureus; conditions: cation adjusted Mueller-Hinton broth, ~10^6 CFU/mL, 24 h, 37 °C, OD600 <0.1 in at least 3 of 4 wells, 2-128 μg/mL; shaded values previously reported ref 18
Method: as §1

MRSA 6381 = type: cell-based, Staphylococcus aureus; conditions: cation adjusted Mueller-Hinton broth, ~10^6 CFU/mL, 24 h, 37 °C, OD600 <0.1 in at least 3 of 4 wells, 2-128 μg/mL; shaded values previously reported ref 18
Method: as §1

MRSA ATCC 33592 = type: cell-based, Staphylococcus aureus; conditions: cation adjusted Mueller-Hinton broth, ~10^6 CFU/mL, 24 h, 37 °C, OD600 <0.1 in at least 3 of 4 wells, 2-128 μg/mL; shaded values previously reported ref 18
Method: as §1

MRSA 6313 = type: cell-based, Staphylococcus aureus; conditions: cation adjusted Mueller-Hinton broth, ~10^6 CFU/mL, 24 h, 37 °C, OD600 <0.1 in at least 3 of 4 wells, 2-128 μg/mL; shaded values previously reported ref 18
Method: as §1

S. aureus B-767 = type: cell-based, Staphylococcus aureus; conditions: cation adjusted Mueller-Hinton broth, ~10^6 CFU/mL, 24 h, 37 °C, OD600 <0.1 in at least 3 of 4 wells, 2-128 μg/mL; shaded values previously reported ref 18
Method: as §1

A. baumannii ATCC 17978 = type: cell-based, Acinetobacter baumannii; conditions: cation adjusted Mueller-Hinton broth, ~10^6 CFU/mL, 24 h, 37 °C, OD600 <0.1 in at least 3 of 4 wells, 2-128 μg/mL; shaded values previously reported ref 18
Method: as §1

A. baumannii 6838 = type: cell-based, Acinetobacter baumannii; conditions: cation adjusted Mueller-Hinton broth, ~10^6 CFU/mL, 24 h, 37 °C, OD600 <0.1 in at least 3 of 4 wells, 2-128 μg/mL; shaded values previously reported ref 18
Method: as §1

A. baumannii 6043 = type: cell-based, Acinetobacter baumannii; conditions: cation adjusted Mueller-Hinton broth, ~10^6 CFU/mL, 24 h, 37 °C, OD600 <0.1 in at least 3 of 4 wells, 2-128 μg/mL; shaded values previously reported ref 18
Method: as §1

[3] = tested on: P. aeruginosa 19660 (Xen5 luciferase); assay: Bioluminescent time-kill assay; type: cell-based, Pseudomonas aeruginosa; conditions: 8 μg/mL; RP553 at 60 min; bioluminescence
Description: (§2) Fungal and bacterial strains were obtained from American Type Culture Collection (ATCC, Manassas, VA, USA) or the clinical isolate collection at Trideum Biosciences (Frederick, MD, USA) and are presented in Table 1 and Table 2, respectively. Bioluminescence strains of P. aeruginosa 19660, transfected with the Xen5 luciferase gene, and S. aureus ATCC R 49525TM (Wright), transfected with the Xen36 luciferase gene, were obtained from Perkin Elmer (Waltham, MA, USA).
(§3) Real-time killing of bacterial cells, P. aeruginosa or S. aureus, and mammalian cytotoxicity to assess dAMP off-target toxicity was evaluated using bioluminescent cells. The L929 fibroblast cells (ATCC, Manassas, VA, USA) were made bioluminescent by transfection with a luciferase gene. Cells (1 × 10^4 cells, 100 μL) were plated in 96-well black-walled plates and the candidate dAMPs were 2-fold serially diluted from specified concentrations in growth medium supplemented with 150 μg/mL D-luciferin. Each concentration was performed in triplicate, with the final volume being 200 μL. Imaging was performed at select times after the addition of the dAMP, and compared to concurrently run vehicle-control, using an IVIS Lumina imaging system (Caliper Life Sciences, Inc., Hopkinton, MA, USA). For imaging, the 96-well plate was positioned on the stage (12.5-cm field of view), with an open emission filter, binning of 4, and f-stop 1 and a 1-min exposure time. Monitoring bioluminescence allows assessment of the kinetics of cellular viability as there is a tight correlation between the bioluminescent signal and cell viability. Data analysis was performed using the Living Image software program (version 4.3, Caliper Life Sciences, Inc., Hopkinton, MA, USA).
(§4) Figure 3 RP553, RP556, RP557 rapidly destroy P. aeruginosa and S. aureus. The bioluminescence of viable P. aeruginosa 19,660 and S. aureus 49,525 cells was quantitated in real time with an IVIS Lumina bioimaging system. Data represent the mean ± SE of triplicate replicates from two independent experiments. For some points, the error bars are shorter than the height of the symbols.

[4] = tested on: S. aureus 49525 (Xen36 luciferase); type: cell-based, Staphylococcus aureus; conditions: 8 μg/mL, 60 min incubation, bioluminescence, triplicates from two independent experiments
Description: as §2, §3, §4

Compound: CC[C@H](C)[C@@H]1NC(=O)CNC(=O)[C@H](CCCCN)NC(=O)[C@H](Cc2ccc(O)cc2)NC(=O)[C@@H]2CSSC[C@H](NC1=O)C(=O)N[C@@H](Cc1ccc(O)cc1)C(=O)N[C@@H](CCCCN)C(=O)N[C@@H](CCCCN)C(=O)N[C@H](C(=O)N[C@@H](CCCCN)C(N)=O)CSSC[C@H](NC(=O)[C@H](Cc1c[nH]c3ccccc13)NC(=O)[C@@H](N)CCCNC(=N)N)C(=O)N[C@@H](Cc1ccccc1)C(=O)N[C@@H](CCCCN)C(=O)N[C@@H](C(C)C)C(=O)N2 [RP556] (H-RWCFKVCYKGICYKKCK-NH2; disulfide 3-16, 7-12)
- MIC against Absidia corymbifera NRRL 6251 [1]: 2 µg/mL (≈ 0.929 µM)
- MIC against Candida parapsilosis Y-1763 [2]: 2 µg/mL (≈ 0.929 µM)
- MIC against Candida krusei Y-27803 (Candida krusei Y-27803): 16 µg/mL (≈ 7.44 µM)
- MIC against K. pneumonia 6069 (K. pneumonia 6069): 8 µg/mL (≈ 3.72 µM)
- MIC against K. pneumonia ATCC 10031 (K. pneumonia ATCC 10031): 8 µg/mL (≈ 3.72 µM)
- mammalian cell toxicity (in words) (L929 fibroblast cells): Limited toxicity
- MIC against S. aureus 6061 (S. aureus 6061): 16 µg/mL (≈ 7.44 µM)
- MIC against MRSA 6381 (MRSA 6381): 4 µg/mL (≈ 1.86 µM)
- MIC against MRSA ATCC 33592 (MRSA ATCC 33592): 4 µg/mL (≈ 1.86 µM)
- MIC against MRSA 6313 (MRSA 6313): 8 µg/mL (≈ 3.72 µM)
- MIC against S. aureus B-767 (S. aureus B-767): 8 µg/mL (≈ 3.72 µM)
- MIC against A. baumannii ATCC 17978 (A. baumannii ATCC 17978): 8 µg/mL (≈ 3.72 µM)
- MIC against A. baumannii 6838 (A. baumannii 6838): 8 µg/mL (≈ 3.72 µM)
- MIC against A. baumannii 6043 (A. baumannii 6043): 8 µg/mL (≈ 3.72 µM)
- P. aeruginosa killing (in words) [3]: immediate eradication
- S. aureus killing [4]: 45%
